Data: patent US4156724A, “N-acylamino-alpha-arylacetamido cephalosporins and antibacterial compositions and methods containing them” (Sumitomo Chemical Company, Limited, priority 1974, dated 1979)
Converted amounts (≈) assume the structure as drawn. Read-outs that look alike come from different tables or passages of the source.

Experiments:
Format in all cases: cell-based
[1] = tested on: Enterobacter aerogeneus No. 75; test: Minimum Inhibitory Concentration, Enterobacter aerogeneus No. 75; conditions: Enterobacter aerogeneus No. 75; for MIC: read-out: Minimum Inhibitory Concentration
Description: (§1) anti-microbial activity tests were carried out on the compounds obtained in the Examples.

[2] = tested on: Klebsiella pneumoniae 602; test: Minimum Inhibitory Concentration, Klebsiella pneumoniae 602; conditions: for Minimum Inhibitory Concentration: Klebsiella pneumoniae 602; for MIC: Klebsiella pneumoniae, 602, Klebsiella pneumoniae 602, read-out: Minimum Inhibitory Concentration
Description: as §1

Proteus vulgaris HX 19 = test: Minimum Inhibitory Concentration, Proteus vulgaris HX 19; conditions: Proteus vulgaris HX 19; for MIC: HX19, read-out: Minimum Inhibitory Concentration
Description: as §1

[3] = tested on: Staphylococcus aureus 209 P; test: Minimum Inhibitory Concentration, Staphylococcus aureus 209 P; conditions: Staphylococcus aureus 209 P; for MIC: read-out: Minimum Inhibitory Concentration
Description: as §1

[4] = tested on: Staphylococcus aureus FS 289; test: Minimum Inhibitory Concentration, Staphylococcus aureus FS 289
Description: as §1
*Staphylococcus aureus FS 289: strain resistant to penicillin

Escherichia coli NIHJ = test: Minimum Inhibitory Concentration, Escherichia coli NIHJ; conditions: Escherichia coli NIHJ; for MIC: read-out: Minimum Inhibitory Concentration
Description: as §1

[5] = tested on: Pseudomonas aeruginosa 104; test: Minimum Inhibitory Concentration, Pseudomonas aeruginosa 104; conditions: Pseudomonas aeruginosa 104; for MIC: read-out: Minimum Inhibitory Concentration
Description: as §1

Serratia No. 72 = test: Minimum Inhibitory Concentration, Serratia No. 72
Description: as §1

[6] = Staphylococcus aureus FS 289, strain resistant to penicillin
[7] = FS289, Staphylococcus aureus FS 289, strain resistant to penicillin, read-out: Minimum Inhibitory Concentration

SMILES	Minimum Inhibitory Concentration [1] [µg/mL]	Minimum Inhibitory Concentration [2] [µg/mL]	Minimum Inhibitory Concentration (Proteus vulgaris HX 19) [µg/mL]	Minimum Inhibitory Concentration [3] [µg/mL]	Minimum Inhibitory Concentration [4, 6] [µg/mL]	Minimum Inhibitory Concentration (Escherichia coli NIHJ) [µg/mL]	Minimum Inhibitory Concentration [5] [µg/mL]	Minimum Inhibitory Concentration (Serratia No. 72) [µg/mL]	MIC [1] [µg/mL]	MIC [2] [µg/mL]	MIC (Proteus vulgaris HX 19) [µg/mL]	MIC [3] [µg/mL]	MIC [4, 7] [µg/mL]	MIC (Escherichia coli NIHJ) [µg/mL]	MIC [5] [µg/mL]	MIC (Serratia No. 72) [µg/mL]	MIC ([4]; Staphylococcus aureus, FS289, read-out: Minimum Inhibitory Concentration) [µg/mL]
CC(=O)OCC1=C(C(=O)[O-])N2C(=O)C(NC(=O)C(NC(=O)c3cnc4nc(C)cnc4c3O)c3ccc(O)cc3)C2SC1.[Na+] (centres unmarked) [Example 136]	6.25	3.13	0.78	0.78	6.25	3.13	6.25	100									
CNc1nnc(SCC2=C(C(=O)O)N3C(=O)C(NC(=O)[C@H](NC(=O)c4cnc5cccnc5c4O)c4ccc(O)cc4)C3SC2)s1 (some centres unmarked) [Example 152]									6.25 (≈ 9.18 µM)	1.56 (≈ 2.29 µM)	0.2 (≈ 0.294 µM)	0.78 (≈ 1.15 µM)	6.25 (≈ 9.18 µM)	3.13 (≈ 4.6 µM)	3.13 (≈ 4.6 µM)	12.5 (≈ 18.4 µM)	
O=C(O)C1=C(CSc2nncs2)CSC2C(NC(=O)C(NC(=O)c3cnc4cccnc4c3O)c3ccc(O)c(O)c3)C(=O)N12 (centres unmarked) [Example 171]									3.13 (≈ 4.69 µM)	1.56 (≈ 2.34 µM)	0.2 (≈ 0.3 µM)	1.56 (≈ 2.34 µM)	12.5 (≈ 18.7 µM)	3.13 (≈ 4.69 µM)	3.13 (≈ 4.69 µM)	25 (≈ 37.4 µM)	
Cc1nnc(SCC2=C(C(=O)O)N3C(=O)C(NC(=O)C(NC(=O)c4cnc5ccc(N(C)C)nc5c4O)c4ccc(CO)cc4)C3SC2)s1 (centres unmarked) [Example 107]									6.25 (≈ 8.65 µM)	1.56 (≈ 2.16 µM)	0.1 (≈ 0.138 µM)	1.56 (≈ 2.16 µM)	6.25 (≈ 8.65 µM)	3.13 (≈ 4.33 µM)	6.25 (≈ 8.65 µM)	12.5 (≈ 17.3 µM)	
CC(=O)OCC1=C(C(=O)O)N2C(=O)[C@@H](NC(=O)[C@H](NC(=O)c3nnc4ccccc4c3O)c3ccc(NC(N)=O)cc3)[C@H]2SC1 [Example 9]									12.5 (≈ 19.7 µM)	12.5 (≈ 19.7 µM)	0.39 (≈ 0.614 µM)	0.78 (≈ 1.23 µM)	6.25 (≈ 9.83 µM)	12.5 (≈ 19.7 µM)	12.5 (≈ 19.7 µM)	50 (≈ 78.7 µM)	
Cn1nnnc1SCC1=C(C(=O)O)N2C(=O)C(NC(=O)C(NC(=O)c3cnc4cccnc4c3O)c3cccc(O)c3)C2SC1 (centres unmarked) [Example 180]									3.13 (≈ 4.82 µM)	1.56 (≈ 2.4 µM)	0.1 (≈ 0.154 µM)	0.78 (≈ 1.2 µM)	6.25 (≈ 9.62 µM)	3.13 (≈ 4.82 µM)	3.13 (≈ 4.82 µM)	12.5 (≈ 19.2 µM)	
CN(C)c1ccc2ncc(C(=O)NC(C(=O)NC3C(=O)N4C(C(=O)O)=C(CSc5nnnn5C)CSC34)c3cccc(N)c3)c(O)c2n1 (centres unmarked) [Example 74]									6.25 (≈ 9.03 µM)	3.13 (≈ 4.52 µM)	0.1 (≈ 0.145 µM)	0.78 (≈ 1.13 µM)	6.25 (≈ 9.03 µM)	1.56 (≈ 2.26 µM)	3.13 (≈ 4.52 µM)	12.5 (≈ 18.1 µM)	
CC(=O)OCC1=C(C(=O)O)N2C(=O)C(NC(=O)[C@H](NC(=O)c3cnccc3O)c3ccc(O)c(Cl)c3)C2SC1 (some centres unmarked) [Example 117]									25 (≈ 43.3 µM)	12.5 (≈ 21.7 µM)	0.2 (≈ 0.347 µM)	0.39 (≈ 0.676 µM)	6.25 (≈ 10.8 µM)	12.5 (≈ 21.7 µM)	6.25 (≈ 10.8 µM)	100 (≈ 173 µM)	
Cn1nnnc1SCC1=C(C(=O)O)N2C(=O)C(NC(=O)C(NC(=O)c3cnccc3O)c3ccc(O)c(F)c3)C2SC1 (centres unmarked) [Example 187]									12.5 (≈ 20.3 µM)	12.5 (≈ 20.3 µM)	0.39 (≈ 0.632 µM)	0.78 (≈ 1.26 µM)	6.25 (≈ 10.1 µM)	6.25 (≈ 10.1 µM)	6.25 (≈ 10.1 µM)	50 (≈ 81.1 µM)	
CC(=O)OCC1=C(C(=O)O)N2C(=O)C(NC(=O)[C@H](NC(=O)c3cncnc3O)c3ccc(O)cc3)C2SC1 (some centres unmarked) [Example 118]									25 (≈ 46 µM)	25 (≈ 46 µM)	0.39 (≈ 0.718 µM)	0.39 (≈ 0.718 µM)	6.25 (≈ 11.5 µM)	12.5 (≈ 23 µM)	6.25 (≈ 11.5 µM)	> 200	
Nc1cccc(C(NC(=O)c2ccnnc2O)C(=O)NC2C(=O)N3C(C(=O)O)=C(CSc4nnc(CO)s4)CSC23)c1 (centres unmarked) [Example 86]									12.5 (≈ 19.8 µM)	6.25 (≈ 9.91 µM)	0.39 (≈ 0.618 µM)	0.78 (≈ 1.24 µM)	6.25 (≈ 9.91 µM)	12.5 (≈ 19.8 µM)	12.5 (≈ 19.8 µM)	50 (≈ 79.3 µM)	
CN(C)c1ccc2ncc(C(=O)N[C@@H](C(=O)N[C@@H]3C(=O)N4C(C(=O)O)=C(CSc5cnn[nH]5)CS[C@H]34)c3ccc(NC(N)=O)cc3)c(O)c2n1 [Example 27]									3.13 (≈ 4.35 µM)	1.56 (≈ 2.17 µM)	0.2 (≈ 0.278 µM)	1.56 (≈ 2.17 µM)		3.13 (≈ 4.35 µM)	3.13 (≈ 4.35 µM)	12.5 (≈ 17.4 µM)	6.25 (≈ 8.68 µM)
CSc1ncc2c(O)c(C(=O)NC(C(=O)NC3C(=O)N4C(C(=O)O)=C(CSc5nnnn5C)CSC34)c3cccc(O)c3)cnc2n1 (centres unmarked) [Example 162]									25 (≈ 35.9 µM)	6.25 (≈ 8.97 µM)	0.78 (≈ 1.12 µM)	1.56 (≈ 2.24 µM)	12.5 (≈ 17.9 µM)	12.5 (≈ 17.9 µM)	6.25 (≈ 8.97 µM)	50 (≈ 71.8 µM)	
CC(=O)OCC1=C(C(=O)O)N2C(=O)C(NC(=O)C(NC(=O)c3ccnnc3O)c3ccc(CO)cc3)C2SC1 (centres unmarked) [Example 92]									25 (≈ 44.8 µM)	12.5 (≈ 22.4 µM)	0.39 (≈ 0.7 µM)	0.78 (≈ 1.4 µM)	6.25 (≈ 11.2 µM)	25 (≈ 44.8 µM)	12.5 (≈ 22.4 µM)	> 200	
CSc1ncc2c(O)c(C(=O)NC(C(=O)NC3C(=O)N4C(C(=O)O)=C(CSc5nnnn5C)CSC34)c3ccc(O)cc3)nnc2n1 (centres unmarked) [Example 173]									25 (≈ 35.8 µM)	6.25 (≈ 8.96 µM)	0.78 (≈ 1.12 µM)	0.78 (≈ 1.12 µM)	12.5 (≈ 17.9 µM)	12.5 (≈ 17.9 µM)	6.25 (≈ 8.96 µM)	50 (≈ 71.7 µM)	
CC(=O)OCC1=C(C(=O)[O-])N2C(=O)C(NC(=O)C(NC(=O)c3cnc4cccnc4c3O)c3cc(Cl)c(O)c(Cl)c3)C2SC1.[Na+] (centres unmarked) [Example 144]	12.5	6.25	1.56	3.13	12.5	6.25	6.25	100									
Nc1cccc(C(NC(=O)c2cnc3cccnc3c2O)C(=O)NC2C(=O)N3C(C(=O)O)=C(CSc4n[nH]c(=O)s4)CSC23)c1 (centres unmarked) [Example 80]									3.13 (≈ 4.69 µM)	3.13 (≈ 4.69 µM)	0.2 (≈ 0.3 µM)	0.78 (≈ 1.17 µM)	6.25 (≈ 9.37 µM)	3.13 (≈ 4.69 µM)	3.13 (≈ 4.69 µM)	12.5 (≈ 18.7 µM)	
CC(=O)OCC1=C(C(=O)O)N2C(=O)[C@@H](NC(=O)[C@H](NC(=O)c3cnc4nc(C)c(C)nc4c3O)c3ccc(NC(N)=O)cc3)[C@H]2SC1 [Example 35]									25 (≈ 37.6 µM)	3.13 (≈ 4.71 µM)	0.39 (≈ 0.587 µM)	1.56 (≈ 2.35 µM)	6.25 (≈ 9.4 µM)	6.25 (≈ 9.4 µM)	6.25 (≈ 9.4 µM)	50 (≈ 75.2 µM)	
Nc1cccc(C(NC(=O)c2cnc3cccnc3c2O)C(=O)NC2C(=O)N3C(C(=O)O)=C(CSc4cnn[nH]4)CSC23)c1 (centres unmarked) [Example 54]									3.13 (≈ 4.94 µM)	3.13 (≈ 4.94 µM)	0.1 (≈ 0.158 µM)	0.78 (≈ 1.23 µM)	6.25 (≈ 9.86 µM)	1.56 (≈ 2.46 µM)	3.13 (≈ 4.94 µM)	12.5 (≈ 19.7 µM)	
NC(=O)Nc1cccc([C@@H](NC(=O)c2cnc3cccnc3c2O)C(=O)N[C@@H]2C(=O)N3C(C(=O)O)=C(CSc4nnc(CO)s4)CS[C@H]23)c1 [Example 36]									6.25 (≈ 8.64 µM)	1.56 (≈ 2.16 µM)	0.2 (≈ 0.276 µM)	0.78 (≈ 1.08 µM)	6.25 (≈ 8.64 µM)	3.13 (≈ 4.32 µM)	3.13 (≈ 4.32 µM)	12.5 (≈ 17.3 µM)	
O=C(O)C1=C(CSc2ccc(O)nn2)CSC2C(NC(=O)C(NC(=O)c3cnc4cccnc4c3O)c3ccc(CO)cc3)C(=O)N12 (centres unmarked) [Example 102]									12.5 (≈ 18.5 µM)	3.13 (≈ 4.63 µM)	0.39 (≈ 0.577 µM)	1.56 (≈ 2.31 µM)	6.25 (≈ 9.25 µM)	3.13 (≈ 4.63 µM)	6.25 (≈ 9.25 µM)	25 (≈ 37 µM)	
CC(=O)OCC1=C(C(=O)O)N2C(=O)C(NC(=O)[C@H](NC(=O)c3nnc4ccccc4c3O)c3ccc(O)cc3)C2SC1 (stereo partly drawn) [Example 124, 7-[D-α-(4-hydroxycinnoline-3-carbonamido)-α-p-hydrxyphenylacetamido]cephalosporanic acid]									25 (≈ 42.1 µM)	12.5 (≈ 21.1 µM)	0.78 (≈ 1.31 µM)	0.78 (≈ 1.31 µM)	6.25 (≈ 10.5 µM)	12.5 (≈ 21.1 µM)	12.5 (≈ 21.1 µM)	100 (≈ 168 µM)	
CC(=O)OCC1=C(C(=O)O)N2C(=O)[C@@H](NC(=O)[C@H](NC(=O)c3cnc4cncnc4c3O)c3cccc(NC(N)=O)c3)[C@H]2SC1 [Example 32]									12.5 (≈ 19.6 µM)	3.13 (≈ 4.92 µM)	0.39 (≈ 0.613 µM)	0.78 (≈ 1.23 µM)	6.25 (≈ 9.82 µM)	3.13 (≈ 4.92 µM)	6.25 (≈ 9.82 µM)	50 (≈ 78.5 µM)	
COc1ccc2ncc(C(=O)N[C@@H](C(=O)N[C@@H]3C(=O)N4C(C(=O)O)=C(COC(C)=O)CS[C@H]34)c3cccc(NC(N)=O)c3)c(O)c2n1 [Example 33]									12.5 (≈ 18.8 µM)	3.13 (≈ 4.7 µM)	0.78 (≈ 1.17 µM)	0.78 (≈ 1.17 µM)	6.78 (≈ 10.2 µM)	3.13 (≈ 4.7 µM)	6.25 (≈ 9.39 µM)	50 (≈ 75.1 µM)	
O=C(O)C1=C(CSc2nnc(CO)s2)CSC2C(NC(=O)[C@H](NC(=O)c3cnc4cccnc4c3O)c3ccc(O)cc3)C(=O)N12 (some centres unmarked) [Example 150]									6.25 (≈ 9.17 µM)	1.56 (≈ 2.29 µM)	0.2 (≈ 0.293 µM)	0.78 (≈ 1.14 µM)	6.25 (≈ 9.17 µM)	3.13 (≈ 4.59 µM)	3.13 (≈ 4.59 µM)	12.5 (≈ 18.3 µM)	
